{
  "source": "patent US20250242086A1",
  "about": "“THERAPEUTIC BIOMATERIAL THAT ATTENUATES THE FOREIGN BODY RESPONSE” (The Regents of the University of Colorado, a body corporate, priority 2022, published 2025)",
  "key": {"cFLIP in cancer cells": {"test_system": "cFLIP in cancer cells", "conditions": "cancer cells versus non-cancerous cells; cited from earlier work"}, "macrophages": {"test_system": "macrophages", "conditions": "in vitro; cited from earlier work"}, "[1]": {"test_system": "J774A.1 macrophage cell line", "test": "Caspase-Glo 8 caspase activity assay in J774A.1 macrophages with FasL with or without small molecule inhibitor", "assay_type": "cell-based", "protocol": "FIG. 11 provides two illustrations depicting in vitro assessment of cell behavior. (A) In Vitro Experimental Protocol: J774A.1 macrophage cell line was incubated overnight at 20,000 cells/well and treated with lipopolysaccharide (LPS) for 4 hours or 3days. Exogenous FasL was then added to initiate the extrinsic apoptotic pathway for 6 hours before caspase activity (Caspase-Glo3/7) and metabolic activity (alamarBlue) assays were performed to study the differences in cell behavior after exposure to each stimulant. (B) In Vitro Experimental Protocol for Small Molecule Testing. J774A. 1 macrophage cell line was incubated overnight at 20,000 cells/well and cultured […] for 3 days. Exogenous FasL was then added to initiate the extrinsic apoptotic pathway with or without a small molecule inhibitor for 6 hours before a caspase activity (Caspase-Glo8) assay was performed to study the differences in cell behavior after exposure. […] J774A.1 macrophage cell line was incubated overnight at 20,000 cells/well and cultured in complete media for 3 days. Exogenous FasL was then added to initiate the extrinsic apoptotic pathway with or without a small molecule inhibitor for 6 hours before a caspase activity (Caspase-Glo 8) assay was performed to study the differences in cell behavior after exposure. Lastly, tests were performed utilizing a small molecule inhibitor (YM155) of CFLIP. […]"}},
  "data": [
    {"molecule": "COCCn1c2c([n+](Cc3cnccn3)c1C)C(=O)c1ccccc1C2=O", "note": "[YM155]", "values": [
      {"measurement": "cFLIP inhibition in cancer cells and induction of their death", "setting": "cFLIP in cancer cells", "value": "inhibited cFLIP in cancer cells and induced their death without affecting non-cancerous cells"},
      {"measurement": "effect on anti-apoptotic programming in macrophages", "setting": "macrophages", "value": "reversed anti-apoptotic programming in macrophages in vitro"},
      {"measurement": "fold change in caspase 8 activity relative to untreated control", "setting": "[1]; 100 ng/mL small molecule, FasL 6 hours, J774A.1 cells cultured 3 days, N=3", "value": "about 23 fold"},
      {"measurement": "effect on caspase 8 activity (qualitative)", "setting": "[1]; small molecule exposure, J774A.1 cells, FasL", "value": "increased caspase 8 activity"}
    ]}
  ]
}
